Tested on: SW 982 tumor spheroid viability
Assay: Anticancer human tumor SW 982 cell line growth inhibition;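 note: spheroids exposed to compound for 7 days before readout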
Conditions: spheroids with HUVEC and MSC; for IC50: curve of first compound; for viability, T/C: stronger effect = lower value
Excerpt: Multicellular complex tumor spheroid response to DNA repair inhibitors in combination with DNA-damaging drugs
This study explores the anticancer activities of DNA-damaging drugs and inhibitors of DNA damage repair, both as single agents and in combinations. Complex tumor spheroids comprised of malignant cells, endothelial cells and mesenchymal stem cells served as an in vitro model for human solid tumors. This model system incorporates physiologically relevant features and patient-derived or established malignant cell lines with clinically relevant genetic alterations from many tumor types. Twenty-six patient-derived or established malignant cell lines were evaluated representing sarcoma, melanoma, small cell lung cancer (SCLC), non-small cell lung cancer (NSCLC), as well as bladder, ovarian and pancreatic cancers. The concentration ranges selected for each drug and investigational agent were based upon clinically achievable concentrations if the clinical Cmax of the agent was known.
Compounds. The drugs and compounds olaparib (NSC753686), talazoparib (NSC767125), berzosertib (NSC777718), elimusertib (NSC800525), nedisertib (NSC802822), VX-984 (NSC792969), AZD-1390 (NSC803789), temozolomide (NSC362856), topotecan (NSC609699), trabectedin (NSC813783), staurosporine (NSC755774), and gemcitabine (NSC613327) were obtained from the National Cancer Institute (NCI) Developmental Therapeutics Program Chemical Repository. The FDA-approved anticancer drug set is available from the Developmental Therapeutics Program at https://dtp.cancer.gov/organization/dscb/obtaining/available_plates.htm. […] The stock solutions were prepared in dimethyl sulfoxide (DMSO, Sigma-Aldrich, St. Louis, MO, cat. D2650) at 400-fold the tested concentration and stored at -70 degrees C. Prior to their use, the stock solutions were diluted in fresh medium and the final DMSO concentration in the assay was 0.25% (v/v). All drugs and investigational agents were tested over a range starting from a high concentration at or near the clinical Cmax and decreasing in half-log increments. If the clinical Cmax for an agent had not been determined, the highest concentration tested was 10 microM.
Cell Lines. The patient-derived cancer cell (PDC) lines: 156681-154-R-J1-PDC, 283228-195-R-J1-PDC, 287954-098-R-J1-PDC, 292921-168-R-J2-PDC, 349418-098-R-PDC, 425362-245-T-J1-PDC, 556581-035-R-J1-PDC, and BL0293-F563-PDC were received from the NCI Patient-Derived Models Repository (PDMR, https://pdmr.cancer.gov). The established cell lines HS-SY-2 (RRID:CVCL_8719), MPNST, and SYO-1 (RRID:CVCL_7146) were obtained from the Sloan Kettering Institute. The alveolar soft parts sarcoma cell line ASPS-1 (RRID:CVCL_S738) was established at the NCI and grown from internal seed stocks. The following established cell lines were purchased from the American Type Culture Collection (ATCC, Manassas, VA): G-401 (ATCC, cat. CRL-1441, RRID:CVCL_0270), SW982 (ATCC, cat. HTB-93, RRID:CVCL_1734), VA-ES-BJ (ATCC, cat. CRL-2138, RRID:CVCL_1785), NCI-H719 (ATCC, cat. CRL-5837, RRID:CVCL_1582), NCI-H196 (ATCC, cat. CRL-5823, RRID:CVCL_1509), NCI-H841 (ATCC, cat. CRL-5845, RRID:CVCL_1595), NCI-H1618 (ATCC, cat. CRL-5879, RRID:CVCL_1480), NCI-H1876 (ATCC, cat. CRL-5902, RRID:CVCL_1503), DMS 114 (ATCC, cat. CRL-2066; RRID:CVCL_1174), NCI-H211 (ATCC, cat. CRL-5824; RRID:CVCL_1529), and SW 1271 (ATCC, cat. CRL-2177, RRID:CVCL_1716). The small cell lung cancer cell line COR-L88 was purchased from Sigma-Aldrich (cat. 92031917-1VL, RRID:CVCL_1141). The non-small cell lung cancer cell lines NCI-H226 (RRID:CVCL_1544) and NCI-H322M (RRID:CVCL_1557) were established at the NCI and grown from internal seed stocks. Pooled donor human umbilical vein endothelial cells (HUVEC, Lonza, cat. CC-2519) and human mesenchymal stem cells (hMSC, Lonza, cat. PT-2501) were purchased from Lonza (Walkersville, MD).
Cell Culture. All cells were maintained in an incubator at 37 degrees C and 5% CO2 with 95% humidity. […]

[1] = second compound 0.003 µM, first compound 0.00949 µM
[2] = second compound 0.003 µM, first compound 0.03 µM
[3] = second compound 0.003 µM, first compound 0.0949 µM
[4] = second compound 0.003 µM, first compound 0.3 µM
[5] = second compound 0.003 µM, first compound 0.949 µM
[6] = second compound 0.003 µM, first compound 3 µM
[7] = second compound 0.00949 µM, first compound 0.00949 µM
[8] = second compound 0.00949 µM, first compound 0.03 µM
[9] = second compound 0.00949 µM, first compound 0.0949 µM
[10] = second compound 0.00949 µM, first compound 0.3 µM
[11] = second compound 0.00949 µM, first compound 0.949 µM
[12] = second compound 0.00949 µM, first compound 3 µM
[13] = second compound 0.03 µM, first compound 0.00949 µM
[14] = second compound 0.03 µM, first compound 0.03 µM
[15] = second compound 0.03 µM, first compound 0.0949 µM
[16] = second compound 0.03 µM, first compound 0.3 µM
[17] = second compound 0.03 µM, first compound 0.949 µM
[18] = second compound 0.03 µM, first compound 3 µM
[19] = second compound 0.0949 µM, first compound 0.00949 µM
[20] = second compound 0.0949 µM, first compound 0.03 µM
[21] = second compound 0.0949 µM, first compound 0.0949 µM
[22] = second compound 0.0949 µM, first compound 0.3 µM
[23] = second compound 0.0949 µM, first compound 0.949 µM
[24] = second compound 0.0949 µM, first compound 3 µM
[25] = second compound 0.3 µM, first compound 0.00949 µM
[26] = second compound 0.3 µM, first compound 0.03 µM
[27] = second compound 0.3 µM, first compound 0.0949 µM
[28] = second compound 0.3 µM, first compound 0.3 µM
[29] = second compound 0.3 µM, first compound 0.949 µM
[30] = second compound 0.3 µM, first compound 3 µM

| Structure (SMILES) | IC50 (second compound 0.003 µM) [nM] | IC50 (second compound 0.00949 µM) [nM] | IC50 (second compound 0.03 µM) [nM] | IC50 (second compound 0.0949 µM) [nM] | IC50 (second compound 0.3 µM) [nM] | viability, T/C [1] [%] | viability, T/C [2] [%] | viability, T/C [3] [%] | viability, T/C [4] [%] | viability, T/C [5] [%] | viability, T/C [6] [%] | viability, T/C [7] [%] | viability, T/C [8] [%] | viability, T/C [9] [%] | viability, T/C [10] [%] | viability, T/C [11] [%] | viability, T/C [12] [%] | viability, T/C [13] [%] | viability, T/C [14] [%] | viability, T/C [15] [%] | other results |
| --- | --- | --- | --- | --- | --- | --- | --- | --- | --- | --- | --- | --- | --- | --- | --- | --- | --- | --- | --- | --- | --- |
| CNCc1ccc(-c2cc(-c3nc(-c4ccc(S(=O)(=O)C(C)C)cc4)cnc3N)on2)cc1 + CC[C@@]1(O)C(=O)OCc2c1cc1n(c2=O)Cc2cc3c(CN(C)C)c(O)ccc3nc2-1 | 207 | 207 | 180 | 134 | 48.6 | 96.2 | 91 | 66.1 | 36.4 | 33.8 | 11.2 | 81.5 | 85.8 | 69.5 | 37.8 | 28.6 | 12.7 | 80 | 79.1 | 61 | viability, T/C [16]: 37.7%; viability, T/C [17]: 32.4%; viability, T/C [18]: 17.5%; viability, T/C [19]: 83.3%; viability, T/C [20]: 75.9%; viability, T/C [21]: 57.2%; viability, T/C [22]: 31.8%; viability, T/C [23]: 25.1%; viability, T/C [24]: 12.4%; viability, T/C [25]: 53.1%; viability, T/C [26]: 57.2%; viability, T/C [27]: 45.5%; viability, T/C [28]: 23.8%; viability, T/C [29]: 20.2%; viability, T/C [30]: 6.34% |
| Cc1sc2c(c1C)C(c1ccc(Cl)cc1)=NC(CC(=O)Nc1ccc(O)cc1)c1nnc(C)n1-2 (stereo not given) + CC[C@@]1(O)C(=O)OCc2c1cc1n(c2=O)Cc2cc3c(CN(C)C)c(O)ccc3nc2-1 | 285 | 553 | 490 | 450 | 254 | 112 | 110 | 76.4 | 49.8 | 40.1 | 30.5 | 97 | 98.9 | 81.5 | 63.8 | 36.9 | 36.4 | 97.1 | 95.8 | 83.2 | viability, T/C [16]: 58.4%; viability, T/C [17]: 38.8%; viability, T/C [18]: 29.8%; viability, T/C [19]: 95.2%; viability, T/C [20]: 92.1%; viability, T/C [21]: 85.9%; viability, T/C [22]: 57.8%; viability, T/C [23]: 35.5%; viability, T/C [24]: 29.2%; viability, T/C [25]: 73.5%; viability, T/C [26]: 80.6%; viability, T/C [27]: 71%; viability, T/C [28]: 45.6%; viability, T/C [29]: 30.4%; viability, T/C [30]: 22.9% |
